Here are results for one sequence from paper PMC4412285, “Broadening the repertoire of melanoma-associated T-cell epitopes” (Cancer Immunology, Immunotherapy : CII, 2015).

In one test the target is T1, HLA-A3 (Homo sapiens, UniProt P04439).
T1 construct: made in house; host or cells: Escherichia coli
Kind of test: MHC ELISA after UV light-mediated peptide exchange. The test is classed as binding. On the set-up: key: 1 = confirm ed ligand. The conditions noted are these: MHC rescue after UV-induced peptide exchange, absorbance normalized to control ligand HLA-A3/FLU NPILR, selected if above 0.63 and 0.50 of control, respectively, in either of two experiments, duplicates.

In test [1] the test system is melanoma cell lines FM3 (HLA-A3+gp100+) and FM28 (HLA-A3-gp100+). Kind of test: 51Chromium-release cytotoxicity assay, melanoma cell lines. In kind it is cell-based, human. To be noted: 51Cr release, 4 h. Here is the method: To measure the ^51Chromium-release, 5 × 10^5 target cells in 100 µl R10 were labeled with ^51Cr (100 µCi; Amersham, Arlington Heights, IL) and pulsed with peptide at 37 °C for 1 h when indicated. The washed target cells were incubated with effector cells at various effector/target ratios in 96-well plates at 37 °C for 4 h before 100 µl of medium was aspirated and the ^51Cr release counted in a gamma counter (Wallac Wizard 1470 Automatic Gamma Counter, Perkin Elmer). The maximum ^51Cr release was determined in separate wells by adding 100 µl of 10 % Triton X-100, and the spontaneous release was determined by adding 100 µl of R10 to target cells only. […] The target cells were melanoma cell lines FM3 (HLA-A3^+gp100^+) and FM28 (HLA-A3^−gp100^+).

The next test relates to T2-A3 cells. Put plainly: 51Chromium-release cytotoxicity assay, peptide-pulsed T2-A3 cells. The test is classed as cell-based, human. To be noted: 51Cr release, no lysis of T2A3 cells pulsed with an irrelevant peptide (Supplementary Figure 5).

T1 sequence (P04439 25-299): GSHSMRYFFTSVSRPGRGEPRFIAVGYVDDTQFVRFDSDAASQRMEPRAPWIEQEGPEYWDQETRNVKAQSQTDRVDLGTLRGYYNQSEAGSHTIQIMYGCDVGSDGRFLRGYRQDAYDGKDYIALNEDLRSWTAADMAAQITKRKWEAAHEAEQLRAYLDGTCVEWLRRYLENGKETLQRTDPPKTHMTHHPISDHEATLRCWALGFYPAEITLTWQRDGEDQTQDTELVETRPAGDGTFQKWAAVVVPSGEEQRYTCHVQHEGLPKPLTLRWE
T1 sequence (P61769 21-119, further chain): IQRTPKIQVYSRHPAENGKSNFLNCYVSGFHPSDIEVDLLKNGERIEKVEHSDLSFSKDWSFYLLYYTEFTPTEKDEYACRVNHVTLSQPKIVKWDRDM

On HLA-A3, LIYRRRLMK had a Confirmed ligand of 1. The “Cold target inhibition of FM3 killing by T2-A3 cells pulsed with the peptide” value in test [1] (not affected by T2-A3 cells pulsed with an irrelevant peptide (Fig. 3e)) is on record as “specifically inhibited”. Moreover, the “T cell-mediated killing of melanoma cell lines FM3 and FM28” value in test [1] (HLA-A3-restricted specific T cells, 37 °C (Fig. 3d)) is on record as “selective killing of the HLA-A3-positive melanoma cell line FM3”. In addition, the “Killing of T2-A3 cells pulsed with the peptide by T cells with matching specificity” value was “specifically killed” in the test on T2-A3 cells (listed as gp100_614-622) and “Specific lysis” in the test with T2-A3 cells (listed as gp100614-22).
